Results as given in ChEMBL document CHEMBL5518165, “M335, a novel small-molecule STING agonist activates the immune response and exerts antitumor effects” (Eur J Med Chem, 2024).
Activity calls are given as the source filed them.

Tests used:
CT26 [1] = experiment: Antitumor activity against mouse CT26 cells […] mouse assessed as augmentation of CD45+ cells in spleen at 10 mg/kg, ip administered every 2 days (reference value: 35.1%); format: functional
CT26 [2] = experiment: Antitumor activity against mouse CT26 cells allografted in […] mouse assessed as augmentation of CD45+ cells in spleen at 5 mg/kg, ip administered every 2 days (reference value: 35.1%); format: functional
Human alphaherpesvirus 1 [3] = experiment: Antiviral activity against HSV-1-GFP infected in human THP-1 cells assessed as reduction in viral infection at 10 to 30 uM pre-infected with virus for 48 hrs followed by compound addition and measured after 6 hrs by flow cytometry analysis; format: functional, organism-based; settings: dose 10-30 µM
[4] = target: Stimulator of interferon genes protein (Homo sapiens) (UniProt Q86WV6); experiment: Agonist activity at STING in human THP-1 cells assessed as increase in IRF3 phosphorylation at 20 uM measured for 4 hrs by Western blotting analysis; format: cell-based; settings: filed as agonist
Stimulator of interferon genes protein (Homo sapiens), sequence (Q86WV6 whole entry): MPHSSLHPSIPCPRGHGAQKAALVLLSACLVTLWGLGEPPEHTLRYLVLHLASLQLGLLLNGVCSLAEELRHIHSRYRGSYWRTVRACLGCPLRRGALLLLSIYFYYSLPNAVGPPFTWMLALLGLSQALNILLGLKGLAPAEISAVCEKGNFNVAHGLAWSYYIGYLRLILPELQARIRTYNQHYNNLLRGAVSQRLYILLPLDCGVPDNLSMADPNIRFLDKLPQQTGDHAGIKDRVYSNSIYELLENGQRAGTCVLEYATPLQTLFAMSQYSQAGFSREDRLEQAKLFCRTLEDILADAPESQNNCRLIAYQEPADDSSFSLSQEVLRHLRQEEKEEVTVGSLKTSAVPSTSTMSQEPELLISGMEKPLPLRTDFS

[5] = Toxicity in C57/BL6 mouse allografted with mouse B16-F10 cells assessed as change in body weight at 300 ug, IT administered every 2 days; format: cell-based; settings: in vivo, other, 48 h, dose 300 µg
[6] = target: Stimulator of interferon genes protein (Homo sapiens) (UniProt Q86WV6); experiment: Agonist activity at STING in human THP-1 cells assessed as increase in STING oligomerization by Western blotting analysis; format: cell-based; settings: filed as agonist, dose 5-40 µM
CT26 [7] = experiment: Antitumor activity against mouse CT26 cells […] mouse assessed as augmentation of CD3+ T cells in spleen at 20 mg/kg, ip administered every 2 days (reference value: 13.9%); format: functional
[8] = target: T1, Stimulator of interferon genes protein (Mus musculus) (UniProt Q3TBT3); experiment: Agonist activity at STING in MEF cells assessed as STING translocation by measuring aggregation of green fluorescence incubated for 1 hr by laser scanning confocal microscope analysis; format: cell-based; settings: filed as agonist
T1 sequence (whole entry): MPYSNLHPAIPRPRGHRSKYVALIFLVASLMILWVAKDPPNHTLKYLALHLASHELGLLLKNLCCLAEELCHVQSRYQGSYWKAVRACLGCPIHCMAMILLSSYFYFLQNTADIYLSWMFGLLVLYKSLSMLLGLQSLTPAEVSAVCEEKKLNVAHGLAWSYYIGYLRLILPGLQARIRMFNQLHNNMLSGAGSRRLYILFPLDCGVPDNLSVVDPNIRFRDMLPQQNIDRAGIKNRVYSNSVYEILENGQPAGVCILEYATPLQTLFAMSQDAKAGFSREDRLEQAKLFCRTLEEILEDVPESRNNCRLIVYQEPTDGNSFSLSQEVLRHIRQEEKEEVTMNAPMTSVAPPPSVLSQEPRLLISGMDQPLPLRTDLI

CT26 [9] = experiment: Antitumor activity against mouse CT26 cells […] mouse assessed as augmentation of CD45+ cells in spleen at 20 mg/kg, ip administered every 2 days (reference value: 35.1%); format: functional; settings: time 2 day
Human alphaherpesvirus 1 [10] = experiment: Antiviral activity against HSV-1-GFP infected in human STING-deficient WT HeLa cells assessed as reduction in viral infection by fluorescent microscopy analysis; format: functional, organism-based
THP-1 = experiment: Upregulation of CXCL10 mRNA level in STING-knockout human THP-1 cells at 20 uM measured for 4 hrs by qPCR analysis; format: functional, cell-based
[11] = target: Stimulator of interferon genes protein (Homo sapiens) (UniProt Q86WV6); experiment: Agonist activity at STING in human THP-1 cells assessed as decrease in STING monomer level at 5 to 40 uM by Western blotting analysis; format: cell-based; settings: filed as agonist, dose 5-40 µM
[12] = target: Stimulator of interferon genes protein (Homo sapiens) (UniProt Q86WV6); experiment: Agonist activity at STING in human THP-1 cells assessed as increase in TBK1 phosphorylation incubated for 4 hrs by Western blotting analysis; format: cell-based; settings: filed as agonist, dose 5-40 µM
MC-38 [13] = experiment: Antitumor activity against mouse MC38 cells allografted in C57/BL6 mouse assessed as increase in NK cells in tumor tissue at 300 ug, IT administered every 2 days by flow cytometry analysis (reference value: 14%); format: functional; settings: dose 300 µg, time 2 day
CT26 [14] = experiment: Antitumor activity against mouse CT26 cells […] mouse assessed as augmentation of CD3+ T cells in spleen at 10 mg/kg, ip administered every 2 days (reference value: 13.9%); format: functional
[15] = target: Stimulator of interferon genes protein (Homo sapiens) (UniProt Q86WV6); experiment: Agonist activity at STING in human THP-1 cells assessed as increase in ISG15 mRNA level at 20 uM measured for 4 hrs by qPCR analysis; format: cell-based; settings: filed as agonist
[16] = target: Stimulator of interferon genes protein (Homo sapiens) (UniProt Q86WV6); experiment: Binding affinity to STING CTD (unknown origin) at 3.125 to 200 uM by surface plasmon resonance analysis; settings: filed as agonist, dose 3.125-200 µM
[17] = target: Stimulator of interferon genes protein (Homo sapiens) (UniProt Q86WV6); experiment: Agonist activity at STING in human THP-1 cells assessed as increase in LC3 protein level at 20 uM measured for 4 hrs by Western blotting analysis; format: cell-based; settings: filed as agonist
[18] = target: Stimulator of interferon genes protein (Homo sapiens) (UniProt Q86WV6); experiment: Agonist activity at STING in human THP-1 cells assessed as increase in IFNB mRNA level at 20 uM measured for 4 hrs by qPCR analysis; format: cell-based; settings: filed as agonist
MC-38 [19] = experiment: Antitumor activity against mouse MC38 cells allografted in C57/BL6 mouse assessed as increase in CD8+ T cells in spleen at 300 ug, IT administered every 2 days by flow cytometry analysis (reference value: 8.80%); format: functional; settings: dose 300 µg
[20] = target: Stimulator of interferon genes protein (Homo sapiens) (UniProt Q86WV6); experiment: Agonist activity at STING in human THP-1 cells assessed as upregulation of innate immune response related genes by gene ontology analysis; format: cell-based; settings: filed as agonist
[21] = target: Stimulator of interferon genes protein (Homo sapiens) (UniProt Q86WV6); experiment: Agonist activity at STING in human THP-1 cells assessed as increase in TBK1 phosphorylation at 20 uM measured for 4 hrs by Western blotting analysis; format: cell-based; settings: filed as agonist
CT26 [22] = experiment: Antitumor activity against mouse CT26 cells allografted in ip dosed […] mouse assessed as reduction in tumor growth administered every 2 days; format: functional, organism-based; settings: dose 5-20 mg/kg
[23] = target: Stimulator of interferon genes protein (Homo sapiens) (UniProt Q86WV6); experiment: Agonist activity at STING in human THP-1 cells assessed as IRF3 phosphorylation at 20 uM measured for 4 hrs in presence of H-151 by Western blotting analysis; format: cell-based
MC-38 [24] = experiment: Induction of apoptosis in mouse MC38 cells allografted in C57/BL6 mouse a at 300 ug, IT administered every 2 days; format: functional, cell-based; settings: dose 300.0 µg
[25] = Toxicity in C57/BL6 mouse xenografted with mouse MC38 cells assessed as organ damage at 300 ug, IT administered every 2 days by hematoxylin and eosin staining based histological analysis; format: cell-based, MC-38; settings: in vivo, other, 48 h, dose 300 µg
[26] = target: Stimulator of interferon genes protein (Homo sapiens) (UniProt Q86WV6); experiment: Binding affinity to human STING CTD assessed as decrease in protein stability by Western blotting analysis; settings: filed as agonist
[27] = target: Stimulator of interferon genes protein (Homo sapiens) (UniProt Q86WV6); experiment: Agonist activity at STING in human THP-1 cells assessed as TBK1 phosphorylation at 20 uM measured for 4 hrs in presence of H-151 by Western blotting analysis; format: cell-based
[28] = Toxicity in C57/BL6 mouse allografted with mouse MC38 cells assessed as change in body weight at 300 ug, IT administered every 2 days; format: cell-based, MC-38; settings: in vivo, other, 48 h, dose 300 µg
MC-38 [29] = experiment: Antitumor activity against mouse MC38 cells allografted in C57/BL6 mouse assessed as increase in CD3+ T cells in spleen at 300 ug, IT administered every 2 days by flow cytometry analysis; format: functional, cell-based; settings: dose 300.0 µg
[30] = target: Stimulator of interferon genes protein (Homo sapiens) (UniProt Q86WV6); experiment: Agonist activity at STING in human THP-1 cells assessed as increase in LC3-II protein level incubated for 4 hrs by Western blotting analysis; format: cell-based; settings: filed as agonist, dose 5-40 µM

Measured: Activity

CC(NCCC(c1ccccc1)c1ccccc1)c1ccccc1 (stereo unspecified) [FENDILINE]
14.3%: MC-38 [19]
inactive: THP-1 | [23] | MC-38 [24] | [27]
42.5%: CT26 [2]
41.4%: CT26 [7]
24%: MC-38 [13]
Non-Toxic: [5] | [25] | [28]
28.6%: CT26 [14]
active: Human alphaherpesvirus 1 [3] | [4] | [6] Dose-Dependent Effect | [8] | Human alphaherpesvirus 1 [10] | [11] | [12] Dose-Dependent Effect | [15] | [16] | [17] | [18] | [20] | [21] | CT26 [22] Dose-Dependent Effect | [26] | MC-38 [29] | [30] Dose-Dependent Effect
76.1%: CT26 [9]
56.3%: CT26 [1]
